Source: patent US9718771B2, “Aniline derivative, pharmaceutical composition containing same, and use thereof” (Kissei Pharmaceutical Co., Ltd., priority 2014, dated 2017)

System: male guinea pigs
Test: Confirmation test for reduction effects on heart rate
Assay type: in vivo
Details: anesthetized guinea pigs, intravenous (vein of penis), 0.03 mg/kg
Excerpt: Confirmation Test for Reduction Effects on Heart Rate
Effects on heart rate of a test compound and fingolimod, which is an S1P1 receptor agonist, were confirmed using male guinea pigs (Japan SLC, 5 to 8-weeks-old in use). Guinea pigs were incised in the median line of cervical region under anesthesia with pentobarbital (Kyoritsu Pharmaceutical) by intraperitoneal administration. A PE90 catheter filled with saline (Otsuka Pharmaceutical Factory) containing 50 units/mL heparin (Mochida Pharmaceutical) was inserted to right common carotid artery. By holding the insertion site of the catheter with silk sutures, it was performed to avoid bleeding from the insertion site and to fix the catheter. After it was confirmed that blood flow reached into the catheter, an apical end of catheter opposite to the insertion site of artery was connected to pressure transducer, and blood pressure and heart rate were measured via a strain pressure amplifier and a heart rate counter unit, respectively. […]
After it was confirmed that blood pressure and heart rate were stabilized in guinea pigs, vehicle, the test compound or fingolimod was administered into the vein of penis at 0.25 mL/kg using 1 mL syringes with needles of 27G. The changes of blood pressure and heart rate were measured every 5 minutes after administration of vehicle, the test compound or fingolimod.

CCCCCCCCc1ccc(CCC(N)(CO)CO)cc1 [fingolimod]
effect on heart rate: remarkable reduction of heart rate
